Laboratory results as given in patent US20260130933A1, “PHARMACEUTICAL COMPOSITION FOR PREVENTION OR TREATMENT OF NEPHROPATHY AND/OR DIABETES MELLITUS, COMPRISING ENAVOGLIFLOZIN” (DAEWOONG PHARMACEUTICAL CO., LTD., priority 2022, published 2026).

Experiment: Example 3: phase 3 trial, enavogliflozin 0.3 mg vs dapagliflozin 10 mg once a day for 24 weeks added to metformin and gemigliptin in patients with type 2 diabetes (same endpoints, rescue drug)
Type: in vivo, human
Procedure: 1) when Metformin (≥1,000 mg/Day) was Administered at a Constant Dose for at Least 8 Weeks Prior to Pre-Visit (Pre-Screening) • Metformin (≥1,000 mg/day) and gemigliptin (50 mg/day) were co-administered during the 8-week stabilization period. […] 4) when Metformin (≥1,000 mg/Day) and Gemigliptin (50 mg/Day) were Co-Administered at Constant Doses for at Least 8 Weeks Prior to Pre-Visit (Prescreening) • Without a separate stabilization period, Pre-visit (pre-screening) was Visit 1 (screening).
Subjects who met the inclusion/exclusion criteria continued to receive metformin and gemigliptin while receiving a placebo of the clinical trial drug in a single-blind (subject-blinded) state for a 2-week run-in period.
Here, the randomized subjects were stratified according to the administration therapy (co-administration with two or less agents (one or two agents) or three or more agents) of a conventional hypoglycemic agent (before washout of another hypoglycemic agent) within 24 weeks prior to obtaining written informed consent and by an HbA1c value (<8% or ≥8%) at Visit 1 (screening) measured in the central laboratory.
The randomized subjects were administered two tablets of the clinical trial drug corresponding to each administration group once a day, and then visited the institution at weeks 6, 12, 18, and 24 during the 24-week administration period to conduct efficacy and safety assessments. In addition, during the clinical trial period, they were instructed to exercise regularly and control their diet without changing their daily life patterns.
• 1) Change in HbA1c at week 24 after administration of clinical trial drug compared to Visit 2 (randomization)
• 1) Change in HbA1c at each time point of weeks 6, 12, and 18 after administration of clinical trial drug compared to Visit 2 (randomization) • 2) Change in FPG at each time point of weeks 6, 12, 18, and 24 after administration of clinical trial drug compared to Visit 2 (randomization) • 3) Proportion of subjects achieving HbA1c<7% at each time point of weeks 6, 12, 18, and 24 after administration of clinical trial drug • 4) Proportion of subjects achieving HbA1c<6.5% at each time point of weeks 6, 12, 18, and 24 after administration of clinical trial drug • 5) Proportion of subjects achieving therapeutic response (HbA1c change (HbA1c at Visit 2—HbA1c at each evaluation time point)>0.5% or HbA1c<7% at each evaluation time point compared to Visit 2 (randomization)) at each time point of weeks 6, 12, 18, and 24 after administration of clinical trial drug • 6) Proportion of subjects achieving therapeutic response (HbA1c change (HbA1c at Visit 2—HbA1c at each evaluation time point)>0.7% or HbA1c<7% at each evaluation time point compared to Visit 2 (randomization)) at each time point of weeks 6, 12, 18, and 24 after administration of clinical trial drug • 7) Proportion of subjects achieving therapeutic response (HbA1c change (HbA1c at Visit 2—HbA1c at each evaluation time point)>1% or HbA1c<7% at each evaluation time point compared to Visit 2 (randomization)) at each time point of weeks 6, 12, 18, and 24 after administration of clinical trial drug

[1] = week 6, modified per-protocol set 1, enavogliflozin 0.3 mg vs dapagliflozin 10 mg
[2] = week 6, modified per-protocol set 1, enavogliflozin 0.3 mg, dapagliflozin 10 mg

For OC[C@H]1O[C@@H](c2cc(Cc3ccc(C4CC4)cc3)c(Cl)c3c2CCO3)[C@H](O)[C@@H](O)[C@@H]1O [Enavogliflozin, (2S,3R,4R,5S,6R)-2-(7-chloro-6 (4-cyclopropylbenzyl)-2,3-dihydrobenzofuran-4-yl)-6-(hydroxymethyl)tetrahydro-2H-pyran-3,4,5-triol], the “Incidence of adverse events or adverse drug reactions between groups” value (24 weeks, vs dapagliflozin) was “no statistically significant differences”, the “HbA1c, Mean (SD)” value (Baseline, PPS) was 7.79% and the “HbA1c, Median” value (Baseline, PPS) was 7.60%. The “Non-inferiority (margin 0.35)” value (HbA1c change at week 24, vs dapagliflozin) was “not inferior”, the “HbA1c change from baseline, ANCOVA LS mean (SE)” value (Week 24, PPS) was −0.92 % p and the “HbA1c change from baseline, Mean (SD)” value (Week 24, PPS) was −0.93 % p. For the same compound, the “HbA1c change from baseline, Median” value (Week 24, PPS) was −0.83 % p, the “HbA1c, Mean (SD)” value (Week 24, PPS) was 6.86% and the “HbA1c, Median” value (Week 24, PPS) was 6.76%. The “HbA1c change from baseline, LS mean difference” value (Week 24, PPS, enavogliflozin minus dapagliflozin) was −0.06 % p, the “Non-inferiority (UCI < 0.35%) in HbA1c change” value (Week 24, PPS, enavogliflozin vs dapagliflozin) was “Yes” and the “FPG change from baseline, LS mean (SE)” value (week 6) was −25.96(1.42) mg/dL. The “HDL-C change from baseline, LS mean (SE)” value (week 6) was 1.96(0.57) mg/dL, the “HOMA-IR change from baseline, LS mean (SE)” value (week 6) was −0.94(0.15) and the “HOMA-β change from baseline, LS mean (SE)” value (week 6) was 8.13(3.08). The “HbA1c change from baseline, LS mean (SE)” value (week 6) was −0.73(0.03) % p, the “LDL-C change from baseline, LS mean (SE)” value (week 6) was 2.49(1.81) mg/dL and the “UACR change from baseline, LS mean (SE)” value (week 6) was −8.76(3.43) g/kg. For the same compound, the “UGCR change from baseline, LS mean (SE)” value (week 6) was 58.10(2.18) mg/mg, the “adiponectin change from baseline, LS mean (SE)” value (week 6) was −0.10 (0.34) μg/mL and the “body weight change from baseline, LS mean (SE)” value (week 6) was −1.92(0.17) kg. For the same compound, the “diastolic blood pressure change from baseline, LS mean (SE)” value (week 6) was −2.04(0.70) mmHg, the “fasting C-peptide change from baseline, LS mean (SE)” value (week 6) was −0.05(0.02) ng/mL and the “leptin change from baseline, LS mean (SE)” value (week 6) was −1.83(0.45) ng/mL. For the same compound, the “systolic blood pressure change from baseline, LS mean (SE)” value (week 6) was −2.76(0.90) mmHg, the “total cholesterol change from baseline, LS mean (SE)” value (week 6) was 5.07 (1.97) mg/dL and the “triglyceride change from baseline, LS mean (SE)” value (week 6) was −6.85(4.47) mg/dL. The “FPG change from baseline, LS mean difference” value (week 6, vs dapagliflozin) was -3.24 mg/dL, the “HDL-C change from baseline, LS mean difference” value (week 6, vs dapagliflozin) was 0.83 mg/dL and the “HOMA-IR change from baseline, LS mean difference” value (week 6, vs dapagliflozin) was 0.05. For the same compound, the “HOMA-β change from baseline, LS mean difference” value (week 6, vs dapagliflozin) was 4.93, the “HbA1c change from baseline, LS mean difference” value (week 6, vs dapagliflozin) was −0.03 % p and the “LDL-C change from baseline, LS mean difference” value (week 6, vs dapagliflozin) was 0.57 mg/dL. For the same compound, the “Odds ratio for achieving HbA1c<6.5%” value (week 6, vs dapagliflozin) was 0.65, the “Odds ratio for achieving HbA1c<7%” value (week 6, vs dapagliflozin) was 1.22 and the “Odds ratio, therapeutic response (HbA1c change >0.5% or HbA1c<7%)” value (week 6, vs dapagliflozin) was 1.52. For the same compound, the “Odds ratio, therapeutic response (HbA1c change >0.7% or HbA1c<7%)” value (week 6, vs dapagliflozin) was 1.16, the “Odds ratio, therapeutic response (HbA1c change >1% or HbA1c<7%)” value (week 6, vs dapagliflozin) was 1.38 and the “UACR change from baseline, LS mean difference” value (week 6, vs dapagliflozin) was 6.09 g/kg. For the same compound, the “UGCR change from baseline, LS mean difference” value (week 6, vs dapagliflozin) was 12.35 mg/mg, the “adiponectin change from baseline, LS mean difference” value (week 6, vs dapagliflozin) was -0.47 µg/mL and the “body weight change from baseline, LS mean difference” value (week 6, vs dapagliflozin) was -0.13 kg. The “diastolic blood pressure change from baseline, LS mean difference” value (week 6, vs dapagliflozin) was −0.16 mmHg, the “fasting C-peptide change from baseline, LS mean difference” value (week 6, vs dapagliflozin) was -0.01 ng/mL and the “leptin change from baseline, LS mean difference” value (week 6, vs dapagliflozin) was 0.20 ng/mL. The “systolic blood pressure change from baseline, LS mean difference” value (week 6, vs dapagliflozin) was 0.73 mmHg, the “total cholesterol change from baseline, LS mean difference” value (week 6, vs dapagliflozin) was 2.45 mg/dL and the “triglyceride change from baseline, LS mean difference” value (week 6, vs dapagliflozin) was -1.46 mg/dL. The “Change from baseline in HDL-C, ANCOVA LS mean difference” value [1] was 0.83 mg/dL, the “Change from baseline in LDL-C, ANCOVA LS mean difference” value [1] was 0.57 mg/dL and the “Change from baseline in total cholesterol, ANCOVA LS mean difference” value [1] was 2.45 mg/dL. For the same compound, the “Change from baseline in triglycerides, ANCOVA LS mean difference” value [1] was -1.46 mg/dL, the “Change from baseline in HDL-C, ANCOVA LS mean” value [2] was 1.96 mg/dL and the “Change from baseline in HDL-C, Mean” value [2] was 1.90 mg/dL. For the same compound, the “Change from baseline in HDL-C, Median” value [2] was 2.00 mg/dL, the “Change from baseline in LDL-C, ANCOVA LS mean” value [2] was 2.49 mg/dL and the “Change from baseline in LDL-C, Mean” value [2] was 2.42 mg/dL. For the same compound, the “Change from baseline in LDL-C, Median” value [2] was -1.00 mg/dL, the “Change from baseline in total cholesterol, ANCOVA LS mean” value [2] was 5.07 mg/dL and the “Change from baseline in total cholesterol, Mean” value [2] was 4.65 mg/dL. For the same compound, the “Change from baseline in total cholesterol, Median” value [2] was 3.00 mg/dL, the “Change from baseline in triglycerides, ANCOVA LS mean” value [2] was -6.85 mg/dL and the “Change from baseline in triglycerides, Mean” value [2] was -4.37 mg/dL. For the same compound, the “Change from baseline in triglycerides, Median” value [2] was -1.00 mg/dL, the “Fasting HDL-C, Mean” value [2] was 47.99 mg/dL and the “Fasting HDL-C, Median” value [2] was 46.00 mg/dL. For the same compound, the “Fasting LDL-C, Mean” value [2] was 73.35 mg/dL, the “Fasting LDL-C, Median” value [2] was 68.00 mg/dL and the “Fasting total cholesterol, Mean” value [2] was 138.43 mg/dL. The “Fasting triglycerides, Mean” value [2] was 112.71 mg/dL, the “Fasting triglycerides, Median” value [2] was 101.00 mg/dL and the “fasting Total cholesterol, Median” value [2] was 134.00 mg/dL.
